Measurements from patent US3960877A, “N-monosubstituted-2,3-pyridinedicarboxamides, and related compounds” (priority 1974, dated 1976).

How the values were obtained:
Type in all cases: in vivo
[1] = tested on: undesirable plants of both the monocotyledonous and the dicotyledonous species; assay: Herbicidal activity, general
Excerpt: All of the 3-substituted compounds of the pyrido [3,2-d]pyrimidine-2,4(1H,3H)-dione and lumazine families made from intermediate amides produced by the method of this invention have an unexpectedly high order of herbicidal activity.
(§1) In using the compound, seeds of the types of plants set forth in Table II were sown in fresh soil. In the preemergence test the soil was sprayed with a solution of the test compound immediately after the seeds were planted, and before any noticeable growth developed. The solution was about a 2 percent by weight solution of the compound in acetone and/or alcohol. The compound was applied at the rate of 16 pounds per acre of soil surface.
(§2) Approximately 3 weeks after spray application, the herbicidal activity of the compound was determined by visual observation of the treated area in comparison with untreated control areas. These observations are reported below in Table II wherein the average activity rating is reported as the percent control of plant growth.
In the postemergence test the soil and developing plants were sprayed approximately 2 weeks after the seeds were sown. The compound was applied at the rate of 8 pounds per acre from about a 2 percent by weight solution of the test compound in acetone and/or alcohol. The postemergence herbicidal activity was measured in the same way as the preemergence activity; i.e. visual observation approximately 11 days after spraying, and expressed as the percent control of plant growth.

[2] = tested on: volunteer soybeans; assay: Herbicidal activity at 16 pounds per acre, % control
Excerpt: as §1, §2

[3] = tested on: Cheatgrass; assay: Preemergence herbicidal activity, % control of plant growth
How it was run: (§3)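 Rating is average percent control of plant growth, judged visually about 3 weeks after application relative to untreated areas. Application: soil surface sprayed at 16 lb/acre with ~2 wt% compound solution in acetone and/or alcohol, immediately after seeding.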

[4] = tested on: Foxtail; assay: as above
How it was run: as §3

[5] = tested on: Velvetleaf; assay: as above; conditions: Abutilon theophrasti, pre-emergence, 504 h, 16 lb/acre, about 3 weeks
How it was run: as §3

[6] = tested on: Alfalfa; assay: as above
How it was run: as §3

[7] = tested on: Lambsquarters; assay: as above
How it was run: as §3

[8] = tested on: Pigweed; assay: as above
How it was run: as §3

[9] = tested on: Wild Oats; assay: as above
How it was run: as §3

[10] = tested on: Cucumber; assay: as above
How it was run: as §3

[11] = tested on: Chickweed; assay: as above; conditions: pre-emergence, 504 h, 16 lb/acre, about 3 weeks
How it was run: as §3

[12] = tested on: Snapbeans; assay: as above; conditions: pre-emergence, 504 h, 16 lb/acre, about 3 weeks
How it was run: as §3

[13] = tested on: Corn; assay: as above
How it was run: as §3

[14] = tested on: Crabgrass; assay: as above
How it was run: as §3

[15] = tested on: Nutgrass; assay: as above; conditions: pre-emergence, 504 h, 16 lb/acre, about 3 weeks
How it was run: as §3

[16] = tested on: Barnyard Grass; assay: as above
How it was run: as §3

[17] = tested on: Yellow Rocket; assay: as above; conditions: pre-emergence, 504 h, 16 lb/acre, about 3 weeks
How it was run: as §3

[18] = tested on: Johnsongrass; assay: as above
How it was run: as §3

[19] = tested on: Curled Dock; assay: as above
How it was run: as §3

[20] = tested on: Cheatgrass; assay: Postemergence herbicidal activity, % control of plant growth; conditions: Bromus tectorum, post-emergence, 264 h, 8 lb/acre, about 11 days
How it was run: (§4)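 Visual scoring (~11 d post-spray) of % plant growth control. Treatment: 8 lb/acre postemergence, ~2 wk after sowing.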

[21] = tested on: Foxtail; assay: as above; conditions: Setaria, post-emergence, 264 h, 8 lb/acre, about 11 days
How it was run: as §4

[22] = tested on: Velvetleaf; assay: as above; conditions: Abutilon theophrasti, post-emergence, 264 h, 8 lb/acre, about 11 days
How it was run: as §4

[23] = tested on: Alfalfa; assay: as above; conditions: Medicago sativa, post-emergence, 264 h, 8 lb/acre, about 11 days
How it was run: as §4

[24] = tested on: Lambsquarters; assay: as above; conditions: Chenopodium album, post-emergence, 264 h, 8 lb/acre, about 11 days
How it was run: as §4

[25] = tested on: Pigweed; assay: as above; conditions: Amaranthus retroflexus, post-emergence, 264 h, 8 lb/acre, about 11 days
How it was run: as §4

[26] = tested on: Wild Oats; assay: as above; conditions: Avena fatua, post-emergence, 264 h, 8 lb/acre, about 11 days
How it was run: as §4

[27] = tested on: Cucumber; assay: as above; conditions: Cucumis sativus, post-emergence, 264 h, 8 lb/acre, about 11 days
How it was run: as §4

[28] = tested on: Chickweed; assay: as above; conditions: post-emergence, 264 h, 8 lb/acre, about 11 days
How it was run: as §4

[29] = tested on: Snapbeans; assay: as above; conditions: post-emergence, 264 h, 8 lb/acre, about 11 days
How it was run: as §4

[30] = tested on: Corn; assay: as above; conditions: Zea mays, post-emergence, 264 h, 8 lb/acre, about 11 days
How it was run: as §4

[31] = tested on: Crabgrass; assay: as above; conditions: Digitaria sanguinalis, post-emergence, 264 h, 8 lb/acre, about 11 days
How it was run: as §4

[32] = tested on: Nutgrass; assay: as above; conditions: post-emergence, 264 h, 8 lb/acre, about 11 days
How it was run: as §4

[33] = tested on: Barnyard Grass; assay: as above; conditions: Echinochloa crus-galli, post-emergence, 264 h, 8 lb/acre, about 11 days
How it was run: as §4

[34] = tested on: Yellow Rocket; assay: as above; conditions: post-emergence, 264 h, 8 lb/acre, about 11 days
How it was run: as §4

[35] = tested on: Johnsongrass; assay: as above; conditions: Sorghum halepense, post-emergence, 264 h, 8 lb/acre, about 11 days
How it was run: as §4

[36] = tested on: Curled Dock; assay: as above; conditions: post-emergence, 264 h, 8 lb/acre, about 11 days
How it was run: as §4

CCn1c(=O)[nH]c2ncccc2c1=O [3-ethyl-pyrido[2,3-d]pyrimidine-2,4 (1H,3H)-dione]
order of herbicidal activity ([1]; in vivo): comparatively low order | percent control [2]: 100% | herbicidal activity/control ([3]; 16 pounds per acre): no significant control | herbicidal activity/control ([4]; 16 pounds per acre): no significant control | pest or weed control at 17933.6 g/ha [5]: 80% | herbicidal activity/control ([6]; 16 pounds per acre): no significant control | herbicidal activity/control ([7]; 16 pounds per acre): no significant control | herbicidal activity/control ([8]; 16 pounds per acre): no significant control | herbicidal activity/control ([9]; 16 pounds per acre): no significant control | herbicidal activity/control ([10]; 16 pounds per acre): no significant control | pest or weed control at 17933.6 g/ha [11]: 80% | pest or weed control at 17933.6 g/ha [12]: 100% | herbicidal activity/control ([13]; 16 pounds per acre): no significant control | herbicidal activity/control ([14]; 16 pounds per acre): no significant control | pest or weed control at 17933.6 g/ha [15]: 90% | herbicidal activity/control ([16]; barnyardgrass, 16 pounds per acre): no significant control | pest or weed control at 17933.6 g/ha [17]: 80% | herbicidal activity/control ([18]; 16 pounds per acre): no significant control | herbicidal activity/control ([19]; 16 pounds per acre): no significant control

CCC(C)n1c(=O)[nH]c2cccnc2c1=O (stereo not drawn) [3-sec-butyl-pyrido[3,2-d] pyrimidine-2,4(1H,3H)-dione]
effective application rate ([1]; relative to 3-isopropyl-pyrido[3,2-d]pyrimidine-2,4(1H,3H)-dione, preemergence or postemergence): substantially the same application rates, e.g., as similar or salt solutions in water, are effective | pest or weed control at 17933.6 g/ha ([3]; Bromus tectorum, pre-emergence, 504 h, 16 lb/acre, about 3 weeks): 100% | pest or weed control at 17933.6 g/ha ([4]; Setaria, pre-emergence, 504 h, 16 lb/acre, about 3 weeks): 100% | pest or weed control at 17933.6 g/ha [5]: 100% | pest or weed control at 17933.6 g/ha ([6]; Medicago sativa, pre-emergence, 504 h, 16 lb/acre, about 3 weeks): 100% | pest or weed control at 17933.6 g/ha ([7]; Chenopodium album, pre-emergence, 504 h, 16 lb/acre, about 3 weeks): 100% | pest or weed control at 17933.6 g/ha ([8]; Amaranthus retroflexus, pre-emergence, 504 h, 16 lb/acre, about 3 weeks): 100% | pest or weed control at 17933.6 g/ha ([9]; Avena fatua, pre-emergence, 504 h, 16 lb/acre, about 3 weeks): 100% | pest or weed control at 17933.6 g/ha ([10]; Cucumis sativus, pre-emergence, 504 h, 16 lb/acre, about 3 weeks): 100% | pest or weed control at 17933.6 g/ha [11]: 100% | pest or weed control at 17933.6 g/ha [12]: 100% | plant injury at 17933.6 g/ha ([13]; Zea mays, pre-emergence, 504 h, 16 lb/acre, about 3 weeks): 100% | pest or weed control at 17933.6 g/ha ([14]; Digitaria sanguinalis, pre-emergence, 504 h, 16 lb/acre, about 3 weeks): 100% | pest or weed control at 17933.6 g/ha [15]: 100% | pest or weed control at 17933.6 g/ha ([16]; Echinochloa crus-galli, pre-emergence, 504 h, barnyard grass, 16 lb/acre, about 3 weeks): 100% | pest or weed control at 17933.6 g/ha [17]: 100% | pest or weed control at 17933.6 g/ha ([18]; Sorghum halepense, pre-emergence, 504 h, 16 lb/acre, about 3 weeks): 100% | pest or weed control at 17933.6 g/ha ([19]; pre-emergence, 504 h, 16 lb/acre, about 3 weeks): 100% | pest or weed control at 8966.8 g/ha [20]: 100% | pest or weed control at 8966.8 g/ha [21]: 100% | pest or weed control at 8966.8 g/ha [22]: 100% | pest or weed control at 8966.8 g/ha [23]: 100% | pest or weed control at 8966.8 g/ha [24]: 100% | pest or weed control at 8966.8 g/ha [25]: 100% | pest or weed control at 8966.8 g/ha [26]: 100% | pest or weed control at 8966.8 g/ha [27]: 100% | pest or weed control at 8966.8 g/ha [28]: 100% | pest or weed control at 8966.8 g/ha [29]: 100% | plant injury at 8966.8 g/ha [30]: 90% | pest or weed control at 8966.8 g/ha [31]: 100% | pest or weed control at 8966.8 g/ha [32]: 100% | pest or weed control at 8966.8 g/ha [33]: 100% | pest or weed control at 8966.8 g/ha [34]: 100% | pest or weed control at 8966.8 g/ha [35]: 100% | pest or weed control at 8966.8 g/ha [36]: 100%
